The source of these data is PMC12224939, “Trypstatin as a Novel TMPRSS2 Inhibitor with Broad‐Spectrum Efficacy against Corona and Influenza Viruses” (Advanced Science, 2025).

Counter-ions that a name gives are not always drawn. Like-named read-outs stand apart in the source and are kept apart here. Bridge positions count the residues as written; N and C are the ends. Ends that are not written are not given here.

The subject of one series is hCoV-NL63. The experiment in a line: HCoV-NL63 inhibition assay in Caco-2 cells. It counts as cell-based. The protocol: Caco‐2 cells (25 000) were seeded in a 96‐well flat‐bottom plate before the following day, cells were treated for 30 min with serial dilutions of compounds in PBS and the cells were infected with a MOI of 0.018 and incubated at 33 °C. At 72 hpi, cells were detached and fixed in a final concentration of 4% PFA for 30 min. Subsequently, cells were washed with PBS and stained for flow cytometry analysis with anti‐NL63‐nucleocapsid antibody (SinoBiological #40641‐T62) diluted 1:5000 in Buffer B (Fix and Perm, MuBio Nordic) for 40 min at 4 °C. Cells were washed twice with FACS buffer (1% FCS in PBS) and incubated with Alexa Flour 647 labeled anti‐rabbit antibody (Cell Signaling #4414) diluted 1:5000 in FACS buffer for 30 min at 4 °C before the cells were washed again twice with FACS buffer. Analysis was performed using a CytoflexLX flow cytometer (Beckmann Coulter) with CytExpert 2.3 software.

In series [1] the test system is Influenza A/Virginia/ATCC3/2009 (Virg09; A/H1N1). The experiment in a line: Influenza virus inhibition assay in Calu-3 cells, IAV H1N1. The series is classed as cell-based, influenza A virus.
For series [2] the following is noted: cited from earlier work.
For a further series, the target named is T1, TMPRSS13 (Homo sapiens, UniProt Q9BYE2).
T1 construct: encoding the respective transmembrane serine protease per well; host or cells: HEK293T
In words: Cellular TMPRSS13 activity assay in transfected HEK293T cells. The series is classed as cell-based. The protocol:
(§1) Twenty thousand HEK293T cells were seeded in a 96‐well flat bottom plate. The next day, cells were transfected with 100 ng of an expression plasmid (Backbone: Twist Bioscience, EF1alpha mammalian expression vector) encoding the respective transmembrane serine protease per well using LT1 transfection reagent (TMPRSS2 human NCBI RefSeq: NP_005647.3; TMPRSS2 Syrian gold hamster NCBI RefSeq: XP_012971683.1; TMPRSS11D NCBI RefSeq: NP_004253.1; TMPRSS13 NCBI RefSeq: NP_001070731.1). In short, plasmid DNA was mixed in a 1:3 ratio with LT1 in a serum‐free medium and incubated for 20 min before the mixture was applied dropwise onto the cells. Sixteen hours post‐transfection, the medium was replaced by a serum‐free medium, and cells were treated with serial dilution of compounds in PBS. After 15 min of incubation at 37 °C, 100 µM of respective protease‐specific substrate (TMPRSS2: Boc‐QAR‐AMC, Bachem # 4017019; TMPRSS11D: Boc‐FSR‐AMC, Bachem # 4012340; TMPRSS13: Pyr‐RTKR‐AMC, Bachem #4018149) was added and incubated for 2 h at 37 °C. Fluorescence intensity was recorded at an excitation wavelength of 380 nm and emission wavelength of 460 nm in a Synergy H1 microplate reader (BioTek) with Gen 5 3.04 software. Values were background corrected for non‐transfected HEK293T‐cells.

The test system of series [3] is Influenza A/Victoria/361/11 (Vict11; A/H3N2). The experiment in a line: Influenza virus inhibition assay in Calu-3 cells, IAV H3N2. The series is classed as cell-based, influenza A virus.
A further series addresses T2, TMPRSS14 (Matriptase) (Homo sapiens, UniProt Q9Y5Y6).
T2 construct: purchased 3946
In words: Recombinant TMPRSS14 activity assay. The series is classed as biochemical. To be noted: recombinant enzyme. The protocol: In the next step, 50 µL of 20 µM BOC‐Gln‐Ala‐Arg‐AMC protease substrate (Bachem #4017019) in the case of TMPRSS2 and TMPRSS14 or 50 µL of 150 µM BOC‐Gln‐Arg‐Arg‐AMC (PeptaNova) in the case of TMPRSS1 was added and incubated for 2 h for TMPRSS2, or 5 mins in the case of TMPRSS1/14 at 37 °C. Fluorescence intensity was measured after 2 h at an excitation wavelength of 380 nm and emission wavelength of 460 nm in a SynergyTM H1 microplate reader (BioTek) with Gen5 3.04 software. […] Assays were performed in a total volume of 100 µL in quadruplicate wells of a 96 Nunc well plate (Thermo Scientific #10174221) with a final TMPRSS2 concentration of 20 nM. Initial velocities were measured in 50 s intervals for 15 min with excitation of 360 nm and emission of 460 nm in a SynergyTM H1 microplate reader. K m and V max were calculated from Michaelis–Menten plots using GraphPadPrism. The inhibitory constant K i was calculated from the IC50 values according to the Cheng–Prusoff equation (K i = IC50/(1 + [S]/K m)) for competitive reversible inhibitors.^[ [91] ^]

For a further series, the system named is SARS-CoV-2 Omicron BA.1. In words: microbe, parasite or virus in culture. It counts as cell-based.
A further series deals with T3, Kallikrein 5 (Homo sapiens, UniProt Q9Y337).
T3 construct: purchased R&D 1108
The experiment in a line: Recombinant kallikrein 5 activity assay. It counts as biochemical. The note with it: recombinant enzyme. The protocol: Kallikrein 5 activity was measured by mixing 25 µL of compound with 25 µL of 2 µg mL^−1 of recombinant enzyme (R&D #1108) in assay buffer (100 mM NaH2PO4, pH 8) for 15 min at 37 °C before the addition of 50 µL of BOC‐Val‐Pro‐Arg‐AMC substrate (R&D #ES011). The mixture was incubated for 5 min at 37 °C before fluorescence intensity was measured at an excitation wavelength of 380 nm and emission wavelength of 460 nm in a SynergyTM H1 microplate reader (BioTek) with Gen5 3.04 software.

The next series deals with T4, TMPRSS11D (Homo sapiens, UniProt O60235).
T4 construct: encoding the respective transmembrane serine protease per well; host or cells: HEK293T
In words: Cellular TMPRSS11D activity assay in transfected HEK293T cells. The series is classed as cell-based. On the procedure: as §1

Series [4] has as its system Influenza B/Ned/537/05 (Ned05; B/Yamagata lineage). In words: Influenza virus inhibition assay in Calu-3 cells, IBV. The series is classed as cell-based, influenza B virus.
For series [5], the system named is lentiviral pseudoparticles harboring VSV-G glycoprotein. The series is classed as cell-based.
The mark [6] stands for this setting: Human coronavirus NL63, Caco-2, Table S1, read-out: anti-viral IC50 (±SEM), hCoV-NL63.
Setting [7] is: Table S1, read-out: anti-viral IC50 (±SEM), IAV H1N1.
Setting [8] is: Table S1, read-out: anti-viral IC50 (±SEM), IBV.

T4 sequence (O60235 whole entry): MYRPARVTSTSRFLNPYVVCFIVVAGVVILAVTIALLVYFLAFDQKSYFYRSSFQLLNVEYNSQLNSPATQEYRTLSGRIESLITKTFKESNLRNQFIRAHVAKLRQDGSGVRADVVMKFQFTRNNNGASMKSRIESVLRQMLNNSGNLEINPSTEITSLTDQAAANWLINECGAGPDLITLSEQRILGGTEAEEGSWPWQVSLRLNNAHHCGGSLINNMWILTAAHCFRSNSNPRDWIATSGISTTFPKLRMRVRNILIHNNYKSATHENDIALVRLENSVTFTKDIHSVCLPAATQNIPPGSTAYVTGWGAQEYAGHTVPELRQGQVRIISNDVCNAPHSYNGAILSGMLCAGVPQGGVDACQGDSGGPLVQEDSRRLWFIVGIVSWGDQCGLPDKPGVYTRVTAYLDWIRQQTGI
T3 sequence (Q9Y337 23-293): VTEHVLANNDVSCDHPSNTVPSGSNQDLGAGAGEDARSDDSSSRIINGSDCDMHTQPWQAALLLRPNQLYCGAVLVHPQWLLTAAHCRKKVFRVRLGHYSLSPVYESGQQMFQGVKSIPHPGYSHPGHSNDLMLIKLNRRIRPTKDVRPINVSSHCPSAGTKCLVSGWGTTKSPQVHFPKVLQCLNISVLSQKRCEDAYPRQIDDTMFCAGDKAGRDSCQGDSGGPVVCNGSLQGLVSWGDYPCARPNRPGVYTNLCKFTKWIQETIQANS
T1 sequence (Q9BYE2 other isoform, or with tags, fused parts or gaps): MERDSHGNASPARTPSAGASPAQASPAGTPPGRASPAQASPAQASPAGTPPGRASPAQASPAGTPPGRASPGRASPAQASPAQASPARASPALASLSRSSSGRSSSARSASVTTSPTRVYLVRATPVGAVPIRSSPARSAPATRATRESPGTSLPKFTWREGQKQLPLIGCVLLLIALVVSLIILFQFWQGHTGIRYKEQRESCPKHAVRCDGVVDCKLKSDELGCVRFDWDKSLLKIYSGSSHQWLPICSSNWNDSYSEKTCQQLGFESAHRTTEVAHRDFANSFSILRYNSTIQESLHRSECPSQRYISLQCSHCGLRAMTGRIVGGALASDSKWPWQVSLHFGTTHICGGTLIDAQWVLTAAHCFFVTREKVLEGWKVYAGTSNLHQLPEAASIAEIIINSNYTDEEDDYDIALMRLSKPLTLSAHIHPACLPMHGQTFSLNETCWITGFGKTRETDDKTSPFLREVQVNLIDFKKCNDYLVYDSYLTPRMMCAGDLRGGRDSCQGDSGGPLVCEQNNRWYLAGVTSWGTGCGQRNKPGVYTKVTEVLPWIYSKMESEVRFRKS
T2 sequence (Q9Y5Y6 whole entry): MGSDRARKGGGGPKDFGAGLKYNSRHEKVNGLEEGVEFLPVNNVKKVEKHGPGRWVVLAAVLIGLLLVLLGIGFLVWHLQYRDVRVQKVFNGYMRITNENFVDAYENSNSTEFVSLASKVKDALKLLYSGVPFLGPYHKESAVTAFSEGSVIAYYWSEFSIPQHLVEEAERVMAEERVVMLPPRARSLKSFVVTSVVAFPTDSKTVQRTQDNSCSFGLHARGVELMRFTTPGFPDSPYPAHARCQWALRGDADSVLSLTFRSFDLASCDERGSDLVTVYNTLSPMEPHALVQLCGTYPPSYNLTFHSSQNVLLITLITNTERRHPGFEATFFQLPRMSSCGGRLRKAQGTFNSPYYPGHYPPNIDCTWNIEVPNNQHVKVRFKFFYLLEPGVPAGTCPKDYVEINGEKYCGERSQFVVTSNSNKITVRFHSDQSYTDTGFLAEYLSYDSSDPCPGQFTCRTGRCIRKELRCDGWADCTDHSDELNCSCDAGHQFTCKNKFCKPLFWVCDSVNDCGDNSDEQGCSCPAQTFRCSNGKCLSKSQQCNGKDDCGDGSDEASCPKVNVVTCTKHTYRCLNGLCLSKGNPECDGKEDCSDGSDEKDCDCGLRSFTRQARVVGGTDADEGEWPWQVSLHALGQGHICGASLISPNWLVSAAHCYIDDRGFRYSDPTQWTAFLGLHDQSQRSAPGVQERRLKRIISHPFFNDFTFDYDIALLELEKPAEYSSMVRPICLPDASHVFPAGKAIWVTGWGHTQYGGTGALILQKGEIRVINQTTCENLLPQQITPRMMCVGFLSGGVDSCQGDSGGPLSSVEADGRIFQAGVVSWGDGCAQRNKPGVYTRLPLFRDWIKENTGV

For `CC(C)(C)[C@H](NC(=O)C(F)(F)F)C(=O)N1C[C@H]2[C@@H]([C@H]1C(=O)N[C@H](C#N)C[C@@H]1CCNC1=O)C2(C)C` [Nirmatrelvir], in the series with hCoV-NL63 (setting [6]), the concentration for half-maximal inhibition (IC50) (as a rule, the point on the concentration scale where inhibition reaches its midpoint) worked out at 1260 ± 64 nM.

As for `CN(C)C(=O)COC(=O)Cc1ccc(OC(=O)c2ccc(NC(=N)N)cc2)cc1` [Camostat mesylate], the half-inhibitory concentration (IC50) in series [1] (Influenza A virus, Calu-3, 72 h, read-out: IC50, IAV H1N1 (Virg09)) stood at 220 nM; in [1] (Influenza A virus, Calu-3, Table S1, read-out: anti-viral IC50 (±SEM), IAV H1N1) it was 220 ± 49 nM; at TMPRSS13 it was 93 nM; with hCoV-NL63 (Human coronavirus NL63, Caco-2, 72 h, read-out: IC50, hCoV-NL63 replication) it was 110 nM; in the series with hCoV-NL63 (setting [6]) it was 110 ± 24 nM; in series [3] (Influenza A virus, H3N2, Calu-3, 72 h, read-out: IC50, IAV H3N2 (Vict11)), 50 nM. Further, the half-maximal inhibitory concentration (IC50) in series [3] (Influenza A virus, H3N2, Calu-3, Table S1, read-out: anti-viral IC50 (±SEM), IAV H3N2) came to 50.2 ± 16 nM; on TMPRSS14 (Matriptase) it was 23 nM; in the series with SARS-CoV-2 Omicron BA.1 (Severe acute respiratory syndrome coronavirus 2, Caco-2, 24 h, read-out: IC50, SARS-CoV-2 Omicron BA.1) it was 68 nM; in the series on SARS-CoV-2 Omicron BA.1 (Severe acute respiratory syndrome coronavirus 2, Caco-2, read-out: anti-viral IC50 (±SEM), SARS-CoV-2 BA.1) it was 68.1 ± 5 nM; at Kallikrein 5 it was 536 nM; on TMPRSS11D, 194 nM. The half-inhibitory concentration (IC50) in [4] (Influenza B virus, Calu-3, 72 h, read-out: IC50, IBV (Ned05)) was 125 nM; in series [4] (Influenza B virus, Calu-3, Table S1, read-out: anti-viral IC50 (±SEM), IBV), 125 ± 33 nM. Further, in series [2], the plasma half-life is recorded as less than 2 h.

As for `N=C(N)c1ccc2cc(OC(=O)c3ccc(N=C(N)N)cc3)ccc2c1` [Nafamostat mesylate], the half-life – broadly, how long it takes for the measured level to halve – in series [2] was 8 min.

In the case of Aprotinin, the IC50 in series [1] (setting [7]) was 2250 ± 886 nM; in series [3] (Table S1, read-out: anti-viral IC50 (±SEM), IAV H3N2), 1460 ± 693 nM; in series [4] (setting [8]), 2790 ± 871 nM.

Regarding `O=C1c2c(O)c(=O)ccn2N([C@@H]2c3ccccc3SCc3c2ccc(F)c3F)[C@@H]2COCCN12` [Baloxavir acid], the half-inhibitory concentration (IC50) is 1.6 ± 1 nM in [1] (setting [7]) and 10.3 ± 2 nM in series [4] (setting [8]).

Consider “CNLPIVRGPCRAFIQLWAFDAVKGKCVLFPYGGCQGNGNKFYSEKECREYC (disulfide 1-51, 10-34, 26-47) [Bikunin KD 2]”, for which, in series [5], the “effect on VSV-G-mediated pseudoparticle entry” value was “without affecting VSV‐G‐driven entry”.

B1: Bikunin (protein, UniProt P02760 206-352, looked up)
Inter-alpha-trypsin inhibitor …: AVLPQEEEGSGGGQLVTEVTKKEDSCQLGYSAGPCMGMTSRYFYNGTSMACETFQYGGCMGNGNNFVTEKECLQTCRTVAACNLPIVRGPCRAFIQLWAFDAVKGKCVLFPYGGCQGNGNKFYSEKECREYCGVPGDGDEELLRFSN
modifications: Inter-alpha-trypsin inhibitor light chain
With B1, in series [5], the “effect on VSV-G-mediated pseudoparticle entry” value is “non‐specific effects against VSV‐G‐mediated entry”.
